# Test system: PICS mouse model
# Experiment: PICS score in PICS mouse model (sepsis/ICU-care model)
# Assay type: in vivo
# Settings: follow-up study; fluoxetine 20 mg/kg, whey protein 1.8 g/kg, daily oral gavage; in contrast to collagen hydrolysate
# Procedure: A validated PICS mouse model was used, which is based on the model of Hujinami et al. (J Clin Med. 2021 April; 10(8): 1593.). The model is proven to induce PICS by mimicking ICU care following polymicrobial sepsis. This is achieved by intraperitoneal injection with cecal slurry followed by other typical ICU-related interventions (i.e. antibiotics and saline administration) for 72 h. The model incorporates a specific combination of physical (grip strength test), mental (anxiety level), and cognitive (discrimination index, habituation index, exploration time) parameters that often characterize PICS.
# The development of PICS in the model was first confirmed in a pilot study (not shown herein). The mice develop PICS after ˜1 week.
# The mice (C57BL6J, Charles River laboratories, France) receive collagen hydrolysate (“CH”, Peptan, Porcine ˜1800 Da, Rousselot B. V.) or the relevant controls according to the following experimental groups: • 1. No PICS+vehicle (saline), i.e. “Control” • 2. PICS+vehicle (saline), i.e. “PICS” • 3. PICS+CH 1.8 g/kg (˜10 g clinical dose), i.e. “PICS+low dose CH” • 4. PICS+CH 8 g/kg (˜44 g clinical dose), i.e. “PICS+high dose CH”
# The mice are administered once a day from day 12 through day 47.
# Treatment is started 4 days after the induction of PICS. The CH or vehicle is administered by daily oral gavage for a duration of […] (day 12-47). […]
compound,measurement,value
CNCCC(Oc1ccc(C(F)(F)F)cc1)c1ccccc1 (stereo not shown) [fluoxetine],improvement in PICS score,little/no improvement

# Source: US12226459B2, “Collagen hydrolysate for use in prevention and/or treatment of post intensive care syndrome (pics)” (ROUSSELOT B.V., priority 2022, dated 2025)
